The text below walks through data of patent US20230277582A1, “TREATMENT OF PRIMARY AND/OR SECONDARY LUNG TUMORS USING GASEOUS NITRIC OXIDE INHALATION” (Beyond Air, Inc., priority 2020, published 2023).

Where two headings read alike, the source gives them in different places.

For one series, the system named is CT26 colon cancer cells. Description: In vitro NO treatment, cell viability by XTT assay, CT26. It is filed as cell-based, mouse. How it is done: (§1) 10,000-20,000 cells from a cancer cell line were plated onto a 96-well plate. After an overnight incubation at 37° C. and 5% CO2, the cell culture medium was removed, and the plate was placed inside an exposure chamber made of acrylic glass, which was closed and sealed with paraffin wax tape. A gas delivery line was inserted from the top of the chamber. NO supplied from 800 ppm NO cylinders, as well as air and oxygen, were delivered to the chamber at a gas flow rate of 1 liter per minute. NO was diluted to the indicated concentration and the final oxygen concentration inside the chamber was adjusted to about 21%, to avoid cell death due to lack of oxygen. Gas exposure lasted for the indicated time period, for one to seven exposure cycles. Gas exchange during this time was permitted via an outlet hole located close to the bottom of the chamber. Cancer cells exposed to air served as a control group. Cell viability was determined using an XTT (2,3-bis-(2-methoxy-4-nitro-5-sulfophenyl)-2H-tetrazolium-5-carboxanilide) assay, whereby conversion of the XTT by viable cells to the corresponding formazan dye was quantified by spectrophotometry.
CT26 colon cancer cells (a mouse colon cancer line) were grown in 100 μl RPMI (Roswell Park Memorial Institute medium)-based tissue culture medium, supplemented with 1% streptomycin-penicillin and 10% fetal bovine serum, and plated 1 day before exposure to NO in 10 ml RPMI-based tissue culture medium; and then exposed to 400 ppm NO for 1 hour, or to 200 ppm NO for one or more cycles of 15 minutes (separated by 30 minutes of rest at 37° C.), using the procedures described hereinabove. Immediately after each exposure, 100 μl of the abovementioned supplemented RPMI-based tissue culture medium was added to each well and plated were stored at 37° C. and 5% CO2.
CT26 colon cancer cells were exposed to 1 μM of the chemotherapeutic agent 5-fluorouracil (5FU), in addition to 200 ppm NO for 30 minutes, using the procedures described hereinabove, except that after overnight incubation at 37° C. and 5% CO2, the 5FU was added to the cell culture medium, and the cells were subjected to a second overnight incubation prior to being placed within the exposure chamber, as described therein.
In another experiment, CT26 cells were exposed to 0.5-50 μM 5FU and 4 cycles of 200 ppm NO for 10 minutes (separated by 30 minutes of rest at 37° C.), using the procedures described hereinabove, except that the 5FU was added immediately after the last exposure to NO (or air), followed by incubation for about 24 hours.
For orientation: Tetrazolium dyes change colour on reduction, which living cells bring about.

Series [1] concerns human fibroblast, keratinocyte, endothelial, monocyte and macrophage cells. To be noted: 200 ppm gNO; cited from earlier work.
The subject of a further series is LLC1 lung cancer cells. Put plainly: In vitro NO treatment, cell viability by XTT assay, LLC1. Format: cell-based. To be noted: Mus musculus, read-out: LLC1 cells not viable. The method, then:
as §1
Furthermore, LLC1 lung cancer cells (a mouse lung cancer line) were exposed to 200 ppm NO for 15 or 30 minutes, using the procedures described hereinabove.

A further series concerns healthy dogs. Description: Safety study of intermittent NO inhalation in healthy dogs. To be noted: 250-400 ppm NO, 30 days. It is filed as in vivo, dog. How it is done: (§2) The effect of intermittent inhalation of NO at a concentration of 250-400 ppm was tested for 30 days in healthy dogs and for 12 days in healthy rats.
For the next series, the system named is healthy rats. Put plainly: Safety study of intermittent NO inhalation in healthy rats. It is filed as in vivo, rat. The conditions noted are these: 250-400 ppm NO, 12 days. The method, then: as §2
The next series concerns S. aureus. To be noted: 200 ppm gNO; cited from earlier work.

As usually defined, the viability is a per cent measure of how many cells are alive, often set against a control.

As to `O=c1[nH]cc(F)c(=O)[nH]1` [5FU, 5-fluorouracil], the “effect on CT26 cells (viability)” value in the series on CT26 colon cancer cells (1 μM 5FU alone, overnight incubation (FIG. 4)) is listed as “little effect”.

For the molecule `[N]=O` [NO, nitric oxide], in series [1], the “cytotoxicity to human cells in culture” value is recorded as “without being cytotoxic”. The cytotoxicity at 200 ppm is 41% in the series with LLC1 lung cancer cells (LLC1, 0.25 h, 200 ppm NO for 15 minutes (FIG. 3)); 65% with LLC1 lung cancer cells (LLC1, 0.5 h, 200 ppm NO for 30 minutes (FIG. 3)); 51% in the series with CT26 colon cancer cells (Mus musculus, CT26, 0.5 h, read-out: reduction of CT26 cell viability). The CT26 cell viability entry in the series on CT26 colon cancer cells (400 ppm NO for 1 hour (FIG. 1)) is reported as “not viable”; in the series on CT26 colon cancer cells (seven cycles of 15 minutes, 200 ppm NO, compared to four cycles (FIG. 2C)) it was “did not produce an additional reduction in viability”; in the series with CT26 colon cancer cells (single 15 minute exposure to 200 ppm NO (FIG. 2A)) it was “little effect”. Further, the viability at 200 ppm in the series on CT26 colon cancer cells (Mus musculus, CT26, read-out: CT26 cell viability (decreased to)) is roughly 40%. Besides, the “macroscopic or microscopic effect of NO inhalation” value in the series on healthy dogs and in the series on healthy rats was “No macroscopic or microscopic effect” throughout. Moreover, the “S. aureus burden in rabbit wound model” value in the series on S. aureus is given as “reduced S. aureus burden”.
